Reference: patent US20170232083A1, “METHODS OF DIAGNOSIS AND TREATMENT OF CELIAC DISEASE IN CHILDREN” (priority 2014, published 2017)

Experiments:
[1] = system: PBMC (polyclonal gluten-specific T cells) of paediatric and adult CD patients; assay: IFN-γ ELISpot of PBMC after 3 day oral wheat challenge (SFU, % of maximal peptide response, dominance scores, EC50; Examples 5-6); format: cell-based, human; conditions: for Dominance score 3-5yrs (n = 9): CD children 3-5yrs, n = 9, following wheat challenge; for Dominance score 3-5yrs (n = 9) / Dominance score 6-10yrs (n = 10) / Dominance score 11-18yrs (n = 11): mean percentage of maximal peptide response; for Dominance score 6-10yrs (n = 10): CD children 6-10yrs, n = 10, following wheat challenge; for Dominance score 11-18yrs (n = 11): CD children 11-18yrs, n = 11, following wheat challenge; for Dominance score Mean all ages: CD children, following wheat challenge (Table 9); for dominance hierarchy across all age groups: Example 6; for Dominance scores 3-5 yrs: children with celiac disease 3-5 yrs after wheat challenge (Table 14); for Dominance scores 6-10 yrs: children with celiac disease 6-10 yrs after wheat challenge (Table 14); for Dominance scores 11-18 yrs: children with celiac disease 11-18 yrs after wheat challenge (Table 14); for Dominance scores Mean all ages: mean of all subjects (Table 14); for IFN-γ ELISpot response: after oral wheat challenge; for dominance hierarchy across all age groupings: Example 5; for response to native vs deamidated form: all age groups; for IFN-γ ELISpot responses Day 0 prior to vs Day 6 after wheat challenge: p<0.05, Kruskal Wallis
[2] = system: PBMC (polyclonal gluten-specific T cells) of paediatric and adult CD patients; conditions: corresponding adult data shown for comparison (14); cited from earlier work
[3] = patient A, 11-17 yrs, cut-off 10 SFU
[4] = patient D, max peptide 30.5 SFU
[5] = patient E, H, 11-17 yrs, cut-off 10 SFU
[6] = patient F, 11-17 yrs, cut-off 10 SFU
[7] = patient G, 11-17 yrs, cut-off 10 SFU
[8] = patient H (HLA-DQ2.5 homozygote), 3-5yrs, cut-off 10 SFU
[9] = patient H, 11-17 yrs, cut-off 10 SFU
[10] = patient ID not given, 11-17 yrs, cut-off 10 SFU
[11] = patient ID not given, max peptide 95 SFU
[12] = patient N, 3-5yrs, cut-off 10 SFU
[13] = patient P, 11-17 yrs, cut-off 21.6 SFU
[14] = patient Q, 11-17 yrs, cut-off 10 SFU
[15] = patient U, H, 11-17 yrs, cut-off 10 SFU
[16] = patient V, 6-10 yrs, cut-off 10 SFU
[17] = patient Y, 6-10 yrs, cut-off 10 SFU
[18] = patient eleven, 6-10 yrs, cut-off 10 SFU
[19] = patient five, max peptide 48 SFU
[20] = patient seven, 6-10 yrs, cut-off 10.5 SFU
[21] = patient ten, 3-5yrs, cut-off 10 SFU
[22] = patient three, 6-10 yrs, cut-off 10.5 SFU
[23] = patient twelve, 11-17 yrs, cut-off 10 SFU
[24] = patient two, 3-5yrs, cut-off 10 SFU
[25] = patient two, max peptide 60 SFU

LQPFPQPELPFPQP [Peptide W06]
Dominance score 3-5yrs (n = 9) [1]: 53.1
Dominance score 6-10yrs (n = 10) [1]: 52.7
Dominance score 11-18yrs (n = 11) [1]: 53.8
Dominance score Mean all ages [1]: 53.2
dominance hierarchy across all age groups [1]: most dominant four peptides
Dominance scores 3-5 yrs [1]: 58
Dominance scores 6-10 yrs [1]: 53
Dominance scores 11-18 yrs [1]: 54
Dominance scores Mean all ages [1]: 54
IFN-γ ELISpot response [1, 3]: 5 SFU
Significant response as percentage of maximal peptide SFU [1, 4]: ′′′ (41-70% = ′′′)
IFN-γ ELISpot response [1, 5]: 103 SFU
Significant response as percentage of maximal peptide SFU ([1]; patient E, max peptide 224 SFU): ′′′ (41-70% = ′′′)
IFN-γ ELISpot response [1, 6]: 107 SFU
Significant response as percentage of maximal peptide SFU ([1]; patient F, max peptide 178 SFU): ′′′′
IFN-γ ELISpot response [1, 7]: 7 SFU
IFN-γ ELISpot response [1, 8]: 41 SFU
IFN-γ ELISpot response [1, 9]: 16 SFU
Significant response as percentage of maximal peptide SFU ([1]; patient H, max peptide 17 SFU): + (>70% = +)
IFN-γ ELISpot response [1, 10]: 59 SFU
Significant response as percentage of maximal peptide SFU [1, 11]: ′′′ (41-70% = ′′′)
Significant response as percentage of maximal peptide SFU ([1]; patient II, max peptide 15 SFU): + (>70% = +)
Significant response as percentage of maximal peptide SFU ([1]; patient J, max peptide 196 SFU): ′′′ (41-70% = ′′′)
Significant response as percentage of maximal peptide SFU ([1]; patient K, max peptide 53 SFU): ′′ (21-40% = ′′)
Significant response as percentage of maximal peptide SFU ([1]; patient M, max peptide 48 SFU): + (>70% = +)
IFN-γ ELISpot response [1, 12]: 4 SFU
IFN-γ ELISpot response [1, 13]: 33 SFU
Significant response as percentage of maximal peptide SFU ([1]; patient P, max peptide 64 SFU): ′′′ (41-70% = ′′′)
IFN-γ ELISpot response [1, 14]: 65 SFU
Significant response as percentage of maximal peptide SFU ([1]; patient Q, max peptide 97 SFU): ′′′ (41-70% = ′′′)
IFN-γ ELISpot response [1, 15]: 54 SFU
Significant response as percentage of maximal peptide SFU ([1]; patient U, max peptide 81 SFU): ′′′′
IFN-γ ELISpot response [1, 16]: 22 SFU
Significant response as percentage of maximal peptide SFU ([1]; patient V, max peptide 35 SFU): ′′′ (41-70% = ′′′)
IFN-γ ELISpot response [1, 17]: 6 SFU
Significant response as percentage of maximal peptide SFU ([1]; patient Z, max peptide 13 SFU): ′′ (21-40% = ′′)
IFN-γ ELISpot response [1, 18]: 43 SFU
Significant response as percentage of maximal peptide SFU ([1]; patient eleven, max peptide 57 SFU): + (>70% = +)
Significant response as percentage of maximal peptide SFU [1, 19]: ′′ (21-40% = ′′)
IFN-γ ELISpot response [1, 20]: 15 SFU
Significant response as percentage of maximal peptide SFU ([1]; patient seven, max peptide 27 SFU): ′′′ (41-70% = ′′′)
IFN-γ ELISpot response ([1]; patient six, 3-5yrs, cut-off 10 SFU): 12 SFU
Significant response as percentage of maximal peptide SFU ([1]; patient six, max peptide 13 SFU): + (>70% = +)
IFN-γ ELISpot response [1, 21]: 10 SFU
Significant response as percentage of maximal peptide SFU ([1]; patient ten, max peptide 14.5 SFU): + (>70% = +)
IFN-γ ELISpot response [1, 22]: 112 SFU
IFN-γ ELISpot response [1, 23]: 13 SFU
IFN-γ ELISpot response [1, 24]: 26 SFU
Significant response as percentage of maximal peptide SFU [1, 25]: ′′′ (41-70% = ′′′)
Dominance scores 18+ yrs [2]: 15

LQPFPQPELPYPQP [Peptide W02, contains DQ2.5-glia-a1a and a2]
magnitude of T cell responses, HLA-DQ2.5 homozygous vs heterozygous [1]: significantly greater
EC50 compared between age groups ([1]; 17 children (3-5, 6-10, 11-18 yrs) and four adults, dose curve 0.1-50 ug/ml): a difference was observed between 3-5 yrs and 6-10 yrs
Dominance score 3-5yrs (n = 9) [1]: 74.8
Dominance score 6-10yrs (n = 10) [1]: 56.9
Dominance score 11-18yrs (n = 11) [1]: 59.6
Dominance score Mean all ages [1]: 63.3
dominance hierarchy across all age groupings [1]: most dominant three peptides
dominance hierarchy across all age groups [1]: most dominant four peptides
response to native vs deamidated form [1]: Deamidation enhanced the response
Dominance scores 3-5 yrs [1]: 77
Dominance scores 6-10 yrs [1]: 57
Dominance scores 11-18 yrs [1]: 60
Dominance scores Mean all ages [1]: 64
IFN-γ ELISpot responses Day 0 prior to vs Day 6 after wheat challenge [1]: Significant gluten-specific responses were observed on Day 6 only
Dominance scores 18+ yrs [2]: 58

QPFPQPEQPFPWQ [Peptide W03, contains DQ2.5-glia-w1 and w2]
magnitude of T cell responses, HLA-DQ2.5 homozygous vs heterozygous [1]: significantly greater
Dominance score 3-5yrs (n = 9) [1]: 66.6
Dominance score 6-10yrs (n = 10) [1]: 51.5
Dominance score 11-18yrs (n = 11) [1]: 46.5
Dominance score Mean all ages [1]: 54.2
dominance hierarchy across all age groupings [1]: most dominant three peptides
CD children responding (polyclonal T cells after oral wheat challenge) ([1]; Example 5, n=22): 68.2%
dominance hierarchy across all age groups [1]: most dominant four peptides
CD children responding (polyclonal T cells induced by oral wheat challenge) ([1]; Example 6, n=22): 68%
response to native vs deamidated form [1]: Deamidation enhanced the response
Dominance scores 3-5 yrs [1]: 65
Dominance scores 6-10 yrs [1]: 51
Dominance scores 11-18 yrs [1]: 46
Dominance scores Mean all ages [1]: 54
IFN-γ ELISpot responses Day 0 prior to vs Day 6 after wheat challenge [1]: Significant gluten-specific responses were observed on Day 6 only
IFN-γ ELISpot response [1, 3]: 5 SFU
Significant response as percentage of maximal peptide SFU [1, 4]: ′′′ (41-70% = ′′′)
IFN-γ ELISpot response [1, 5]: 61 SFU
Significant response as percentage of maximal peptide SFU ([1]; patient E, max peptide 224 SFU): ′′ (21-40% = ′′)
IFN-γ ELISpot response [1, 6]: 77 SFU
Significant response as percentage of maximal peptide SFU ([1]; patient F, max peptide 178 SFU): ′′′ (41-70% = ′′′)
IFN-γ ELISpot response [1, 7]: 5 SFU
IFN-γ ELISpot response [1, 8]: 48 SFU
IFN-γ ELISpot response [1, 9]: 6 SFU
IFN-γ ELISpot response [1, 10]: 83 SFU
Significant response as percentage of maximal peptide SFU [1, 11]: + (>70% = +)
Significant response as percentage of maximal peptide SFU ([1]; patient J, max peptide 196 SFU): ′′′ (41-70% = ′′′)
Significant response as percentage of maximal peptide SFU ([1]; patient K, max peptide 53 SFU): ′′ (21-40% = ′′)
Significant response as percentage of maximal peptide SFU ([1]; patient M, max peptide 48 SFU): + (>70% = +)
IFN-γ ELISpot response [1, 12]: 19 SFU
Significant response as percentage of maximal peptide SFU ([1]; patient N, max peptide 19 SFU): + (>70% = +)
IFN-γ ELISpot response [1, 13]: 43 SFU
Significant response as percentage of maximal peptide SFU ([1]; patient P, max peptide 64 SFU): ′′′ (41-70% = ′′′)
IFN-γ ELISpot response [1, 14]: 54 SFU
Significant response as percentage of maximal peptide SFU ([1]; patient Q, max peptide 97 SFU): ′′′ (41-70% = ′′′)
IFN-γ ELISpot response [1, 15]: 34 SFU
Significant response as percentage of maximal peptide SFU ([1]; patient U, max peptide 81 SFU): ′′′ (41-70% = ′′′)
IFN-γ ELISpot response [1, 16]: 34 SFU
Significant response as percentage of maximal peptide SFU ([1]; patient V, max peptide 35 SFU): + (>70% = +)
IFN-γ ELISpot response [1, 17]: 8 SFU
IFN-γ ELISpot response [1, 18]: 6 SFU
Significant response as percentage of maximal peptide SFU [1, 19]: + (>70% = +)
IFN-γ ELISpot response ([1]; patient four, 3-5yrs, cut-off 10 SFU): 18 SFU
Significant response as percentage of maximal peptide SFU ([1]; patient four, max peptide 44 SFU): ′′′ (41-70% = ′′′)
IFN-γ ELISpot response [1, 20]: 4 SFU
IFN-γ ELISpot response [1, 21]: 8 SFU
IFN-γ ELISpot response [1, 22]: 13 SFU
IFN-γ ELISpot response [1, 23]: 17 SFU
IFN-γ ELISpot response [1, 24]: 60 SFU
Significant response as percentage of maximal peptide SFU [1, 25]: + (>70% = +)
Dominance scores 18+ yrs [2]: 35
